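Test compounds were applied to cells in 96-well plates for 48 hours at 5 doses. TGI is the concentration that stops growth completely.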
What was measured:
Test in all cases: inhibition of tumour cell growth, NCI panel, 48 h
[1] = tested on: OVCAR-8 ovarian
[2] = tested on: SK-MEL-28 melanoma
[3] = tested on: SNB-75 CNS
[4] = tested on: SK-MEL-5 melanoma
[5] = tested on: T-47D breast
[6] = tested on: RXF 393 renal
[7] = tested on: NCI-H226 lung
[8] = tested on: UO-31 renal
[9] = tested on: KM12 colon
[10] = tested on: UACC-62 melanoma
[11] = tested on: 786-0 renal
[12] = tested on: OVCAR-4 ovarian
[13] = tested on: IGROV1 ovarian
[14] = tested on: MCF7 breast
[15] = tested on: NCI/ADR-RES ovarian
[16] = tested on: NCI-H23 lung
[17] = tested on: RPMI-8226 leukemia
[18] = tested on: A549 NSCLC
[19] = tested on: COLO 205 colon
[20] = tested on: SF-539 CNS
[21] = tested on: PC-3 prostate
[22] = tested on: NCI-H522 lung
[23] = tested on: TK-10 renal
[24] = tested on: HCC-2998 colon
[25] = tested on: SW-620 colon
[26] = tested on: MDA-MB-231 breast
[27] = tested on: BT-549 breast
[28] = tested on: OVCAR-3 ovarian
[29] = tested on: U251 CNS
[30] = tested on: DU-145 prostate
[31] = tested on: HOP-62 NSCLC
[32] = tested on: ACHN renal
[33] = tested on: MOLT-4 leukemia
[34] = tested on: M14 melanoma
[35] = tested on: SK-OV-3 ovarian
[36] = tested on: MDA-N
[37] = tested on: HCT-15 colon
[38] = tested on: CCRF-CEM leukemia
[39] = tested on: MDA-MB-435
[40] = tested on: NCI-H460 lung
[41] = tested on: SF-268 CNS
[42] = tested on: SR leukemia
[43] = tested on: SN12C renal
[44] = tested on: SF-295 CNS
[45] = tested on: K-562 leukemia
[46] = tested on: UACC-257 melanoma
[47] = tested on: HCT-116 colon
[48] = tested on: HS 578T breast
[49] = tested on: SK-MEL-2 melanoma
[50] = tested on: MALME-3M melanoma
[51] = tested on: SNB-19 CNS
[52] = tested on: CAKI-1 renal
[53] = tested on: EKVX NSCLC
[54] = tested on: HL-60(TB) leukemia
[55] = tested on: OVCAR-5 ovarian
[56] = tested on: A498 renal
[57] = tested on: HT29 colon
[58] = tested on: LOX IMVI melanoma
[59] = tested on: HOP-92 NSCLC

NC(Cc1c[nH]c2ccccc12)P(=O)(O)O (stereo unspecified)
TGI [1]: > 100 µM
TGI [2]: > 100 µM
TGI [3]: > 100 µM
TGI [4]: > 100 µM
TGI [5]: > 100 µM
TGI [6]: > 100 µM
TGI [7]: > 100 µM
TGI [8]: > 100 µM
TGI [9]: > 100 µM
TGI [10]: > 100 µM
TGI [11]: > 100 µM
TGI [12]: > 100 µM
TGI [13]: > 100 µM
TGI [14]: > 100 µM
TGI [15]: > 100 µM
TGI [16]: > 100 µM
TGI [17]: > 100 µM
TGI [18]: > 100 µM
TGI [19]: > 100 µM
TGI [20]: > 100 µM
TGI [21]: > 100 µM
TGI [22]: > 100 µM
TGI [23]: > 100 µM
TGI [24]: > 100 µM
TGI [25]: > 100 µM
TGI [26]: > 100 µM
TGI [27]: > 100 µM
TGI [28]: > 100 µM
TGI [29]: > 100 µM
TGI [30]: > 100 µM
TGI [31]: > 100 µM
TGI [32]: > 100 µM
TGI [33]: > 100 µM
TGI [34]: > 100 µM
TGI [35]: > 100 µM
TGI [36]: > 100 µM
TGI [37]: > 100 µM
TGI [38]: > 100 µM
TGI [39]: > 100 µM
TGI [40]: > 100 µM
TGI [41]: > 100 µM
TGI [42]: > 100 µM
TGI [43]: > 100 µM
TGI [44]: > 100 µM
TGI [45]: > 100 µM
TGI [46]: > 100 µM
TGI [47]: > 100 µM
TGI [48]: > 100 µM
TGI [49]: > 100 µM
TGI [50]: > 100 µM
TGI [51]: > 100 µM
TGI [52]: > 100 µM
TGI [53]: > 100 µM
TGI [54]: > 100 µM
TGI [55]: > 100 µM
TGI [56]: > 100 µM
TGI [57]: > 100 µM

Cc1n[nH]c(=O)n1-c1cccnc1
TGI [1]: > 100 µM
TGI [2]: > 100 µM
TGI [3]: > 100 µM
TGI [4]: > 100 µM
TGI [5]: > 100 µM
TGI [6]: > 100 µM
TGI [7]: > 100 µM
TGI [8]: > 100 µM
TGI [9]: > 100 µM
TGI [11]: > 100 µM
TGI [12]: > 100 µM
TGI [58]: > 100 µM
TGI [13]: > 100 µM
TGI [14]: > 100 µM
TGI [15]: > 100 µM
TGI [16]: > 100 µM
TGI [17]: > 100 µM
TGI [18]: > 100 µM
TGI [19]: > 100 µM
TGI [20]: > 100 µM
TGI [21]: > 100 µM
TGI [22]: > 100 µM
TGI [23]: > 100 µM
TGI [24]: > 100 µM
TGI [25]: > 100 µM
TGI [26]: > 100 µM
TGI [27]: > 100 µM
TGI [28]: > 100 µM
TGI [29]: > 100 µM
TGI [30]: > 100 µM
TGI [31]: > 100 µM
TGI [32]: > 100 µM
TGI [33]: > 100 µM
TGI [34]: > 100 µM
TGI [36]: > 100 µM
TGI [37]: > 100 µM
TGI [38]: > 100 µM
TGI [39]: > 100 µM
TGI [40]: > 100 µM
TGI [41]: > 100 µM
TGI [42]: > 100 µM
TGI [43]: > 100 µM
TGI [44]: > 100 µM
TGI [45]: > 100 µM
TGI [46]: > 100 µM
TGI [47]: > 100 µM
TGI [48]: > 100 µM
TGI [50]: > 100 µM
TGI [59]: > 100 µM
TGI [51]: > 100 µM
TGI [52]: > 100 µM
TGI [53]: > 100 µM
TGI [54]: > 100 µM
TGI [55]: > 100 µM
TGI [56]: > 100 µM
TGI [57]: > 100 µM

COC1/C=C/C(C)C(OC)CC(O)/C=C/C(C)C(C(C)C(OC)C(C)CCC(=O)C(C)C(C/C=C/N(C)C=O)OC)OC(=O)/C=C/C=C(\C)CC(OC)CC2=CC(=O)O[C@@H](C(C)C(OC)C1)[C@H]2O (stereo partly specified)
TGI [1]: 0.776 µM
TGI [2]: 0.385 µM
TGI [3]: 0.32 µM
TGI [4]: 0.274 µM
TGI [5]: 6.27 µM
TGI [6]: 0.265 µM
TGI [8]: 0.3 µM
TGI [9]: > 6.11 µM
TGI [10]: 0.504 µM
TGI [11]: 0.503 µM
TGI [12]: 1.21 µM
TGI [13]: 0.423 µM
TGI [14]: 0.409 µM
TGI [15]: 1.14 µM
TGI [16]: 1.06 µM
TGI [17]: 3.7 µM
TGI [18]: 1.1 µM
TGI [19]: 0.418 µM
TGI [20]: 0.434 µM
TGI [21]: 1.09 µM
TGI [22]: 0.653 µM
TGI [23]: 0.785 µM
TGI [24]: 1.35 µM
TGI [25]: > 12.4 µM
TGI [26]: 0.106 µM
TGI [27]: 0.498 µM
TGI [29]: 0.199 µM
TGI [30]: > 6.79 µM
TGI [31]: 0.16 µM
TGI [32]: 1.32 µM
TGI [34]: 0.175 µM
TGI [35]: 0.905 µM
TGI [36]: 0.178 µM
TGI [37]: 0.62 µM
TGI [39]: 1.05 µM
TGI [40]: 0.477 µM
TGI [41]: > 5.72 µM
TGI [42]: > 25 µM
TGI [43]: > 25 µM
TGI [44]: 0.362 µM
TGI [45]: > 25 µM
TGI [46]: 0.318 µM
TGI [47]: 0.41 µM
TGI [48]: 0.261 µM
TGI [50]: 0.317 µM
TGI [59]: 0.168 µM
TGI [51]: 0.239 µM
TGI [52]: 0.0875 µM
TGI [53]: 1.32 µM
TGI [54]: > 25 µM
TGI [55]: 1.86 µM
TGI [56]: 0.131 µM
TGI [57]: > 5.01 µM

— PubChem BioAssay (NCI)
